Results as given in the supplement of paper PMC10307832.

How the values were obtained:
Test in all cases: relative viability (nuclei count vs DMSO), 5 days (fraction); higher = more cells survive
NCI-H1563 = system: NCI-H1563
Outline: (§1)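 Lung cancer cell lines in 1536-well plates got either a single drug or a fixed anchor-drug dose together with five library-drug doses (not always all listed) in √10 steps, by pin tool, on the day after seeding. Nuclei were counted after 5 days, and relative viability is the treated-to-vehicle ratio of nuclei counts. Values are medians of duplicate plates.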

NCI-H1623 = system: NCI-H1623
Outline: as §1

NCI-H2342 = system: NCI-H2342
Outline: as §1

NCI-H522 = system: NCI-H522
Outline: as §1

SW 900 = system: SW 900
Outline: as §1

A549 = system: A549
Outline: as §1

Structure (SMILES) | relative viability (NCI-H1563; first compound 5 µM) | relative viability (NCI-H1563; first compound 15.81 µM) | relative viability (NCI-H1563; first compound 50 µM) | relative viability (NCI-H1563; first compound 158.11 µM) | relative viability (NCI-H1563; first compound 500 µM) | relative viability (NCI-H1623; first compound 5 µM) | relative viability (NCI-H1623; first compound 15.81 µM) | relative viability (NCI-H1623; first compound 50 µM) | relative viability (NCI-H1623; first compound 158.11 µM) | relative viability (NCI-H1623; first compound 500 µM) | relative viability (NCI-H2342; first compound 5 µM) | relative viability (NCI-H2342; first compound 15.81 µM) | relative viability (NCI-H2342; first compound 50 µM) | relative viability (NCI-H2342; first compound 158.11 µM) | relative viability (NCI-H2342; first compound 500 µM) | relative viability (NCI-H522; first compound 5 µM) | relative viability (NCI-H522; first compound 15.81 µM) | relative viability (NCI-H522; first compound 50 µM) | relative viability (NCI-H522; first compound 158.11 µM) | relative viability (NCI-H522; first compound 500 µM) | relative viability (SW 900; first compound 5 µM) | relative viability (SW 900; first compound 15.81 µM) | relative viability (SW 900; first compound 50 µM) | relative viability (SW 900; first compound 158.11 µM) | relative viability (SW 900; first compound 500 µM) | relative viability (A549; first compound 5 µM) | relative viability (A549; first compound 15.81 µM) | relative viability (A549; first compound 50 µM) | relative viability (A549; first compound 158.11 µM) | relative viability (A549; first compound 500 µM)
O=C(O)CCCCC(CCSCc1ccccc1)SCc1ccccc1 (stereo not given) [CPI-613] + CCNC(=O)c1noc(-c2cc(C(C)C)c(O)cc2O)c1-c1ccc(CN2CCOCC2)cc1 [Luminespib] (partner 0.01 µM) | 0.491 | 0.501 | 0.552 | 0.357 | 0.316 | 0.405 | 0.436 | 0.54 | 0.389 | 0.447 | 0.798 | 0.738 | 0.543 | 0.668 | 0.756 | 1.15 | 1.01 | 1.19 | 0.974 | 1.16 | 0.162 | 0.166 | 0.209 | 0.17 | 0.0842 |  |  |  |  | 
O=C(O)CCCCC(CCSCc1ccccc1)SCc1ccccc1 (stereo not given) [CPI-613] + N=C(N)NC(=N)NCCc1ccccc1 [Phenformin] (partner 250 µM) | 0.638 | 0.588 | 0.637 | 0.503 | 0.27 | 0.63 | 0.565 | 0.573 | 0.488 | 0.551 | 0.636 | 0.589 | 0.586 | 0.487 | 0.638 | 0.681 | 0.672 | 0.625 | 0.588 | 0.399 | 0.579 | 0.542 | 0.4 | 0.305 | 0.03 | 0.162 | 0.172 | 0.178 | 0.131 | 0.107
